Read-outs that look alike come from different tables or passages of the source.

Common to all, as to assay type: cell-based
In test [1] the target is GluN1/N2A (Rattus norvegicus, UniProt P35439). Kind of test: Two-electrode voltage-clamp recordings, Xenopus oocytes expressing GluN1/N2A. The following applies: co-applied with 100 μM glutamate and 0.5 μM glycine.
The target of a further test is GluN1(F484A/T518L)/N3B (Rattus norvegicus, UniProt Q8VHN2). As to the kind of experiment: Two-electrode voltage-clamp recordings, Xenopus oocytes expressing GluN1. The following applies: for Hill coefficient (nH): inhibition.
A further test has as its target GluN1(F484A)/N3A (Rattus norvegicus, UniProt P35439+Q9R1M7, F484A). The test is described as above. The following applies: for Hill coefficient (nH): inhibition.
In test [2] the target is GluN1/N2D (Rattus norvegicus, UniProt P35439). Kind of test: Two-electrode voltage-clamp recordings, Xenopus oocytes expressing GluN1/N2D. Particulars: co-applied with 100 μM glutamate and 0.5 μM glycine.
Test [3] concerns the target wild-type GluN1/N3B receptors (Rattus norvegicus, UniProt P35439+Q8VHN2).
In the next test the target is GluN1(F484A/T518L)/N3A (Rattus norvegicus, UniProt Q9R1M7). Kind of test: Two-electrode voltage-clamp recordings, Xenopus oocytes expressing GluN1. Particulars: for voltage dependence of inhibition: current-voltage relationship, inhibition at −60 mV and +30 mV; for Hill coefficient (nH): inhibition.
The target of another test is GluA1 (Rattus norvegicus, UniProt P19490). As to the kind of experiment: Two-electrode voltage-clamp recordings, Xenopus oocytes expressing GluA1.
Test [4] has as its target GluN1/N2B (Rattus norvegicus, UniProt P35439). Kind of test: Two-electrode voltage-clamp recordings, Xenopus oocytes expressing GluN1/N2B. The following applies: co-applied with 100 μM glutamate and 0.5 μM glycine.
For test [5], the target named is GluN1/N2C (Rattus norvegicus, UniProt P35439). Kind of test: Two-electrode voltage-clamp recordings, Xenopus oocytes expressing GluN1/N2C. The following applies: co-applied with 100 μM glutamate and 0.5 μM glycine.
Another test has as its target GluK2 (Rattus norvegicus, UniProt P42260). As to the kind of experiment: Two-electrode voltage-clamp recordings, Xenopus oocytes expressing GluK2.
For a further test, the target named is GluN1(T518L)/N3A (Rattus norvegicus, UniProt P35439+Q9R1M7, T518L). As to the kind of experiment: Two-electrode voltage-clamp recordings, Xenopus oocytes expressing GluN1. The following applies: for Hill coefficient (nH): inhibition.
For test [6], the target named is GluN1/N2A (Rattus norvegicus, UniProt P35439+Q00959). As to the kind of experiment: Two-electrode voltage-clamp recordings, Xenopus oocytes expressing GluN1/N2A.
The target of test [7] is GluN1/N2D (Rattus norvegicus, UniProt P35439+Q62645). As to the kind of experiment: Two-electrode voltage-clamp recordings, Xenopus oocytes expressing GluN1/N2D.
The target of test [8] is GluN1/N2B (Rattus norvegicus, UniProt P35439+Q00960). Kind of test: Two-electrode voltage-clamp recordings, Xenopus oocytes expressing GluN1/N2B.
In test [9] the target is GluN1/N2C (Rattus norvegicus, UniProt P35439+Q00961). Kind of test: Two-electrode voltage-clamp recordings, Xenopus oocytes expressing GluN1/N2C.
The mark [10] stands for this setting: co-applied with 100 μM glycine, N.E., no significant effect at 300 μM.
The mark [11] stands for this setting: IC50, co-applied with 100 μM glutamate and 0.5 μM glycine.
The mark [12] stands for this setting: read-out: inhibition of current responses to 10 μM glycine.
The mark [13] stands for this setting: IC50, co-applied with 100 μM glycine, N.E., no significant effect at 300 μM.

Sequence of GluN1(T518L)/N3A (Q9R1M7 24-1115 isoform Q9R1M7-2 limits assumed, stated change not applied, other chains not shown): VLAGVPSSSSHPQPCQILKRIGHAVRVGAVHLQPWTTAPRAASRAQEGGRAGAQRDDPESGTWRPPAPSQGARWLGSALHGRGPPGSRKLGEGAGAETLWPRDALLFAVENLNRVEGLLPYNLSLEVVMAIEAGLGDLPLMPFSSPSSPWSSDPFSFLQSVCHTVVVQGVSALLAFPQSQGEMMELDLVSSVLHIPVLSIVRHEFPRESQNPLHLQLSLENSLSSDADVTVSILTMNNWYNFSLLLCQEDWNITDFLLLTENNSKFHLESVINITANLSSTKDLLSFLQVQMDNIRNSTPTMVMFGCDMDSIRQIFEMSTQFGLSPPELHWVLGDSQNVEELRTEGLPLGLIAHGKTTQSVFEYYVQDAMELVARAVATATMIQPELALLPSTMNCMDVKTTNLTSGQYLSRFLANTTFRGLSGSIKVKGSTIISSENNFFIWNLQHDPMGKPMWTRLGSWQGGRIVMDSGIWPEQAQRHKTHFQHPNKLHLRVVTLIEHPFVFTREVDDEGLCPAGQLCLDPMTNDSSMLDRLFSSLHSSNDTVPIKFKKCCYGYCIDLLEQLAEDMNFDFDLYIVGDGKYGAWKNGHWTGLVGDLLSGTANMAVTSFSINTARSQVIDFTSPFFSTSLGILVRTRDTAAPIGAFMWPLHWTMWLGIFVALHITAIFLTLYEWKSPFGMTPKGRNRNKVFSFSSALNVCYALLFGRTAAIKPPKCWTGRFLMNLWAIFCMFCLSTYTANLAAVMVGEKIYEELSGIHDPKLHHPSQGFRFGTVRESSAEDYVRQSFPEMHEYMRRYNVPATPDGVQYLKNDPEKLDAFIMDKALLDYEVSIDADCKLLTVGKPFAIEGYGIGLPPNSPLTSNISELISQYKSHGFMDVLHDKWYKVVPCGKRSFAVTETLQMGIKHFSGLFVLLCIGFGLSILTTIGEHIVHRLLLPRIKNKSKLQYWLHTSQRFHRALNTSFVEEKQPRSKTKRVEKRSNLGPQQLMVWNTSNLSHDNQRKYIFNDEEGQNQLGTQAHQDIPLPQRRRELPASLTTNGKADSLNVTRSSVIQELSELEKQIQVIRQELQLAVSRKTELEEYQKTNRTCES
Sequence of GluN1(F484A/T518L)/N3A (Q9R1M7 24-1115 isoform Q9R1M7-2, other chains not shown): as the sequence (Q9R1M7 24-1115 isoform Q9R1M7-2 limits assumed, stated change not applied, other chains not shown) above
Sequence of GluN1(F484A)/N3A (Q9R1M7 24-1115 isoform Q9R1M7-2 limits assumed, stated change not applied, other chains not shown): as above
Sequence of wild-type GluN1/N3B receptors (Q8VHN2 25-1002, other chains not shown): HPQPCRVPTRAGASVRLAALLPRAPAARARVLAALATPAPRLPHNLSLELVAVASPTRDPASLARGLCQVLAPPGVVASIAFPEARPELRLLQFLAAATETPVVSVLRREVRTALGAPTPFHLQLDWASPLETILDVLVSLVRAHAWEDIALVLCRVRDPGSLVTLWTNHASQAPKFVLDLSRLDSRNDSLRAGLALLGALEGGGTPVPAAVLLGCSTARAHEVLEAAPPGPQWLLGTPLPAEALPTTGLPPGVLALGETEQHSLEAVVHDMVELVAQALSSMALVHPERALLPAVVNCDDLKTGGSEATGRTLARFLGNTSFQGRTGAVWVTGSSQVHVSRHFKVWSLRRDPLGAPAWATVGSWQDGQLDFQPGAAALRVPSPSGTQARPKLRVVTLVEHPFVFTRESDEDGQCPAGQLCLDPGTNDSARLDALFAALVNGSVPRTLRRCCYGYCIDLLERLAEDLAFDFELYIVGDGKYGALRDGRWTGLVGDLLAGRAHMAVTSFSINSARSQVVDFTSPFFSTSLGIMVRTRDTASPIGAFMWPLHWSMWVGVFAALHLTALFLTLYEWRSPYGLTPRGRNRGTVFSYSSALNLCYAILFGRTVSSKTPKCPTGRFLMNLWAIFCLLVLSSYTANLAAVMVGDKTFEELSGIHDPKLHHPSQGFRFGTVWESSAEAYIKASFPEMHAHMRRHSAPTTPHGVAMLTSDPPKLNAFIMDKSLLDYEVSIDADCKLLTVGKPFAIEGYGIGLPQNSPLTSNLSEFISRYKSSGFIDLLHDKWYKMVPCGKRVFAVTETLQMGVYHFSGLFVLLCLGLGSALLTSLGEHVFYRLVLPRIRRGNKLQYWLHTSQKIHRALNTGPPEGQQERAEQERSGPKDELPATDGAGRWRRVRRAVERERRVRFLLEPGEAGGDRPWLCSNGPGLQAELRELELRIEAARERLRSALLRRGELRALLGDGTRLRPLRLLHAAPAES
Sequence of GluN1(F484A/T518L)/N3B (Q8VHN2 25-1002, stated change not applied, other chains not shown): as the sequence (Q8VHN2 25-1002, other chains not shown) above
Sequence of GluK2 (P42260 32-908): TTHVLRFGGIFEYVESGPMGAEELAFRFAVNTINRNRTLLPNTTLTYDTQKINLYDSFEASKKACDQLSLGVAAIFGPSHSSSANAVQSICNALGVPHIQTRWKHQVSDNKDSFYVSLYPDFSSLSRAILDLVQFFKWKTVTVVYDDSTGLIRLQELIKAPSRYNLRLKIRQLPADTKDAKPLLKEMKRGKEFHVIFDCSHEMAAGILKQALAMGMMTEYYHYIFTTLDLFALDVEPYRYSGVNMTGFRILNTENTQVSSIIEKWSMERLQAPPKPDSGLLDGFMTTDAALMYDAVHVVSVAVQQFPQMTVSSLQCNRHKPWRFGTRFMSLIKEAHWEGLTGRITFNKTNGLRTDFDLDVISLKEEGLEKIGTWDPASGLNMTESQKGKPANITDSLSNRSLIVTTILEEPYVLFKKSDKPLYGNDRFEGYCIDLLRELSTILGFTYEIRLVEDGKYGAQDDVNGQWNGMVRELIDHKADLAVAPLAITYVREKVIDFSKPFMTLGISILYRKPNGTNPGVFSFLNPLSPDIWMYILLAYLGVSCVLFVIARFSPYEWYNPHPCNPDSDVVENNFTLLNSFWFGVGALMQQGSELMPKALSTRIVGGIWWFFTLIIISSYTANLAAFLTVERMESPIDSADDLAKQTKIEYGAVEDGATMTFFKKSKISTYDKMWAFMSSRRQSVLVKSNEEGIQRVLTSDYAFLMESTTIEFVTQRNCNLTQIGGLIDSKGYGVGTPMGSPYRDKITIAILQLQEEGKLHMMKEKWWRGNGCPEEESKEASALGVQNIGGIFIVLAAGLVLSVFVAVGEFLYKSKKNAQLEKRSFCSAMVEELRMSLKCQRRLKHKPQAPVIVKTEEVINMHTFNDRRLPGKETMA
Sequence of GluA1 (P19490 19-907): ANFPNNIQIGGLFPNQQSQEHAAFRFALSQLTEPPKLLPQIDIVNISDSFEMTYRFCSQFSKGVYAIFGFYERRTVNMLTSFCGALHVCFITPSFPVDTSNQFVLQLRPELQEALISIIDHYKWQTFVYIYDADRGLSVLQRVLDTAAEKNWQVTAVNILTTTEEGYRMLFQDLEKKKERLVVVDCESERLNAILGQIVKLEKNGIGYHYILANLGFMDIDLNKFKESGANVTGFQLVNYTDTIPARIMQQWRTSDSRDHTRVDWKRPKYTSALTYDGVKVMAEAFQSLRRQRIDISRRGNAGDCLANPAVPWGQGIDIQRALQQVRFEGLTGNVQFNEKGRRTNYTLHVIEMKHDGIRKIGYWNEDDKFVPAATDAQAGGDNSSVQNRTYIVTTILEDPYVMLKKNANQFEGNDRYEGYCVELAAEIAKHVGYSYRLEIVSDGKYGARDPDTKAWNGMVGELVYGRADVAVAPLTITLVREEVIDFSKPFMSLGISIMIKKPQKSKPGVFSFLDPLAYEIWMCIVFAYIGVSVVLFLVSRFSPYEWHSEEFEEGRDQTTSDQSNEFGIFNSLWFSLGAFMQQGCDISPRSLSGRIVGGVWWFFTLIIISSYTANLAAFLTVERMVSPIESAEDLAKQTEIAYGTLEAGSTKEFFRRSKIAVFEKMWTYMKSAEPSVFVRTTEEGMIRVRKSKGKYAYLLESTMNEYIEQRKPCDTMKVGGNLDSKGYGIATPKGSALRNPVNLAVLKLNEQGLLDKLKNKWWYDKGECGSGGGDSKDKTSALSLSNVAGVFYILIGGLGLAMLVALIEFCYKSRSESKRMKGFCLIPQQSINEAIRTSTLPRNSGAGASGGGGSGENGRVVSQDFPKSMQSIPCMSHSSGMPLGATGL

For the compound `O=C(O)c1cc(Nc2nc(-c3cccnc3)cs2)ccc1O` [TK13], the IC50 against GluN1/N2A [1] was > 300 µM; at GluN1(F484A/T518L)/N3B (co-applied with 100 μM glycine), 49 µM; against GluN1(F484A)/N3A (co-applied with 100 μM glycine) it was 93 µM; at GluN1/N2D [2] it was > 300 µM; against GluN1(F484A/T518L)/N3A (setting [10]) it was 67 µM; against GluA1 (co-applied with 30 μM glutamate), > 300 µM. For the same compound, the IC50 at GluN1/N2B [4] was > 300 µM; at GluN1/N2C [5] it was > 300 µM; against GluK2 (co-applied with 30 μM glutamate, oocytes incubated 5 min in 10 μM concanavalin A), > 300 µM; at GluN1(T518L)/N3A (co-applied with 50 μM glycine), 100 µM. Also, the “pIC50 ± S.E.M.” value on GluN1(F484A/T518L)/N3B (co-applied with 100 μM glycine) is 4.3 ± 0.03; against GluN1(F484A)/N3A (co-applied with 100 μM glycine) it was 4.0 ± 0.03; against GluN1(F484A/T518L)/N3A (co-applied with 100 μM glycine) it was 4.2 ± 0.06; against GluN1(T518L)/N3A (co-applied with 50 μM glycine) it was 4.0 ± 0.05. Moreover, the “Hill coefficient (nH)” value on GluN1(F484A/T518L)/N3B (co-applied with 100 μM glycine) is given as −0.77; at GluN1(F484A)/N3A (co-applied with 100 μM glycine), −1.04; at GluN1(F484A/T518L)/N3A (co-applied with 100 μM glycine), −1.04; on GluN1(T518L)/N3A (co-applied with 50 μM glycine), −1.02. In addition, the Maximal inhibition at GluN1(F484A)/N3A (co-applied with 100 μM glycine) and on GluN1(T518L)/N3A (co-applied with 50 μM glycine) was 100% in each case. Besides, the “inhibition of current responses to 10 μM glycine” value in [3] (100 μM compound) came to 55 ± 3.1%. Also, the “voltage dependence of inhibition” value at GluN1(F484A/T518L)/N3A is “voltage-independent”.
Regarding `O=c1[nH]c2nonc2nc1O` [TK80, 6-hydroxy-[1,2,5]oxadiazolo[3,4-b]pyrazin-5(4H)-one], the IC50 on GluN1/N2A [6] is > 300 µM; against GluN1(F484A/T518L)/N3B it was 79 µM; against GluN1/N2D [7] (setting [11]), > 300 µM; on GluN1(F484A/T518L)/N3A (setting [13]), > 300 µM; at GluN1(F484A/T518L)/N3A (setting [10]), “N.E”; at GluA1, > 300 µM. The IC50 against GluN1/N2B [8], against GluN1/N2C [9] and against GluK2 was > 300 µM throughout. Also, the Ki at GluN1/N2A [6] is > 290 µM; at GluN1(F484A/T518L)/N3B it was 39 µM; at GluN1/N2D [7] it was > 210 µM; at GluN1/N2B [8], > 260 µM; at GluN1/N2C [9] it was > 260 µM. In addition, the “voltage dependence of inhibition” value at GluN1(F484A/T518L)/N3B (current-voltage relationship, inhibition at −60 mV and +30 mV) is on record as “voltage-independent”. On GluN1(F484A/T518L)/N3B (co-applied with 100 μM glycine), the “Hill coefficient (nH)” value is given as −1.79. Moreover, the inhibition at 100 µM in test [3] (setting [12]) turned out to be 65 ± 4.3%.
With `O=C(O)c1cc(C(=O)c2ccc(Cl)cc2Cl)c[nH]1` [TK30, 4-(2,4-dichlorobenzoyl)-1H-pyrrole-2-carboxylic acid], the “Hill coefficient (nH)” value is given as −1.39 at GluN1/N2A [1] (inhibition); −1.37 at GluN1(F484A/T518L)/N3B (co-applied with 100 μM glycine); −1.16 at GluN1(F484A)/N3A (co-applied with 100 μM glycine); −1.83 at GluN1/N2D [2] (inhibition); −1.44 on GluN1(F484A/T518L)/N3A (co-applied with 100 μM glycine); −1.77 on GluN1/N2C [5] (inhibition). Moreover, at GluN1(T518L)/N3A (co-applied with 50 μM glycine), the “Hill coefficient (nH)” value was −1.50. The IC50 against GluN1/N2A [6] was 270 µM; on GluN1(F484A/T518L)/N3B, 7.4 µM; against GluN1(F484A)/N3A, 34 µM; against GluN1/N2D [7] (setting [11]) it was 90 µM; on GluN1/N2D [7] (pIC50 ± S.E.M., co-applied with 100 μM glutamate and 0.5 μM glycine) it was 79.4 µM; against GluN1(F484A/T518L)/N3A (setting [13]), 14 µM. The IC50 was 15.8 µM against GluN1(F484A/T518L)/N3A (pIC50 ± S.E.M., co-applied with 100 μM glycine); > 300 µM against GluN1/N2B [8]; 120 µM on GluN1/N2C [9]; 9.8 µM against GluN1(T518L)/N3A. In addition, the Maximal inhibition on GluN1(F484A)/N3A (co-applied with 100 μM glycine) and at GluN1(T518L)/N3A (co-applied with 50 μM glycine) was 100% throughout. The inhibition at 30 µM in test [3] (setting [12]) stood at 70 ± 4%. In addition, the “voltage dependence of inhibition” value at GluN1(F484A/T518L)/N3A is given as “voltage-independent”.
